The record followed here is ChEMBL document CHEMBL1156550, “Synthesis and pharmacological evaluation of pentacyclic 6a,7-dihydrodiindole and 2,3-dihydrodiindole derivatives as novel melatoninergic ligands” (Bioorg Med Chem, 2008).

The term Ki denotes the equilibrium dissociation constant of an inhibitor or competing ligand from its target. A lower Ki goes with tighter binding.

Test [1] addresses Melatonin receptor type 1A (Homo sapiens, UniProt P48039). As to the kind of experiment: Displacement of 2-[125I]iodomelatonin from human melatonin MT1 receptor expressed in CHO cells. The class given is cell-based.
Test [2] concerns the target T1, Melatonin receptor type 1B (Homo sapiens, UniProt P49286).
T1 sequence (P49286 whole entry): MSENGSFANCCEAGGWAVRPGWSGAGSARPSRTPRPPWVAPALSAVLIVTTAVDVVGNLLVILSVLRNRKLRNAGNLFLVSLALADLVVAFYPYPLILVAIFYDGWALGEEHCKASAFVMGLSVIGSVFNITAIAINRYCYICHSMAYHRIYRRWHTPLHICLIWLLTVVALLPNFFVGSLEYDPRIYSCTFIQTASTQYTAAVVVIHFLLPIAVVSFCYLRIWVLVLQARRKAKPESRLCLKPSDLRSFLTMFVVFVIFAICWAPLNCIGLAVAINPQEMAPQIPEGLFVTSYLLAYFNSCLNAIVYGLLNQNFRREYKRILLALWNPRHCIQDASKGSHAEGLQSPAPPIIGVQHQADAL
As to the kind of experiment: Displacement of 2-[125I]iodomelatonin from human melatonin MT2 receptor expressed in CHO cells. The class given is cell-based.

The species entered for a further test is Homo sapiens. As to the kind of experiment: Selectivity ratio of Ki for human melatonin MT1 receptor to Ki for human melatonin MT2 receptor.

Sequence of Melatonin receptor type 1A (P48039 whole entry): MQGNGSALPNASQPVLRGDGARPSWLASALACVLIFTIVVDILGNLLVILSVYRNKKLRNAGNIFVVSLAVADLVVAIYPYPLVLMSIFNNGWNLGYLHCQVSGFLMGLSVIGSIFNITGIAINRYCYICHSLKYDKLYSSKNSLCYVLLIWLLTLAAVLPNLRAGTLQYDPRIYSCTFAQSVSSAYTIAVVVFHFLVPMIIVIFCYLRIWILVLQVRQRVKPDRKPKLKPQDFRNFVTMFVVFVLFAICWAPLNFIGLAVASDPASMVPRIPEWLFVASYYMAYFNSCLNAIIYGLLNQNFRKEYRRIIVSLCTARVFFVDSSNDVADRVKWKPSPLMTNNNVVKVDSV

With `COc1ccc2[nH]c(CN3c4ccccc4CC3CO)c(CCNC(C)=O)c2c1` (racemic), the Ki in test [1] worked out at 17.5 nM; in test [2] it was 36.2 nM. Moreover, in the test filed under Homo sapiens, the Ratio Ki was found to be 0.48.
For `COc1ccc2c(c1)CC1Cn3c(c(CCNC(C)=O)c4cc(OC)ccc43)CN21` (stereo unspecified), the results for the inhibition constant (Ki) in test [1] and in test [2] were 1800 nM and 410 nM, respectively.
With `COc1ccc2[nH]c(CN3c4ccccc4C[C@H]3CO)c(CCNC(C)=O)c2c1`, the Ki in test [1] turned out to be 9.8 nM; in test [2] it was 7.8 nM. Moreover, the Ratio Ki in the test filed under Homo sapiens was determined as 1.25.
For the compound `COc1ccc2c(c1)c(CCNC(C)=O)c1n2CC2Cc3ccccc3N2C1` (stereo unspecified), the Ki worked out at 319 nM in test [1] and 65.2 nM in test [2]. In addition, the Ratio Ki in the test filed under Homo sapiens is 4.89.
Regarding `CC(=O)NCCc1c2n(c3ccccc13)CC1Cc3ccccc3N1C2` (stereo unspecified), the results for the Ki in test [1] and in test [2] were 1000 nM and 1700 nM, respectively.
Turning to `COc1ccc2c(c1)CC(CO)N2Cc1[nH]c2ccc(OC)cc2c1CCNC(C)=O` (racemic), the Ki in test [1] was determined as 34.5 nM; in test [2], 33.6 nM. Further, the Ratio Ki in the test listed under Homo sapiens came to 1.03.
